# Reference: US6589943B2, “Formulation of amphiphilic heparin derivatives for enhancing mucosal absorption” (Mediplex Corporation, Korea, priority 2001, dated 2003)
# Experiments:
# [1] = background, literature; cited from earlier work
# [2] = zeta potential of particles in sodium bicarbonate buffer; format: physicochemical
# Experimental: Surface Charges of Heparin-DOCA Particle. Zeta potentials of heparin-DOCA particles in sodium bicarbonate buffer were measured according to procedures well known in the art. The negative potential of heparin-DOCA conjugate particles was decreased by mixing with free DOCA. This was due to the fact that the DOCA moiety coupled to heparin could be exposed on the surface of heparin-DOCA conjugate particles by mixing with free DOCA.
Compound,absorption in the GI tract [1],Zeta Potential [2]
heparin,not absorbed in the GI tract,
"C[C@H](CCC(=O)O)[C@H]1CC[C@H]2[C@@H]3CC[C@@H]4C[C@H](O)CC[C@]4(C)[C@H]3C[C@H](O)[C@]12C [Bile Acid, deoxycholic acid]",,−22.3 ± 11.4 mv
